In patent US20210127673A1, “HERBICIDES” (SYNGENTA PARTICIPATIONS AG, priority 2016, published 2021):

Tests used:
Type in all cases: in vivo
Settings in all cases: evaluated after 13 days
[1] = tested on: Echinochloa crus-galli (ECHCG); assay: Post-emergence herbicidal activity, Echinochloa crus-galli; parameters: key: 5=total damage to plant; 0=no damage to plant
Procedure: (§1) Seeds of a variety of test species were sown in standard soil in pots: Triticum aestivium (TRZAW), Avena fatua (AVEFA), Alopecurus myosuroides (ALOMY), Echinochloa crus-galli (ECHCG), Lolium perenne (LOLPE), Zea Mays (ZEAMX), Abutilon theophrasti (ABUTH), Amaranthus retroflexus (AMARE) and Setaria faberi (SETFA). After 8 days cultivation (post-emergence) under controlled conditions in a glasshouse (at 24/16° C., day/night; 14 hours light; 65% humidity), the plants were sprayed with an aqueous spray solution derived from the formulation of the technical active ingredient in acetone/water (50:50) solution containing 0.5% Tween 20 (polyoxyethelyene sorbitan monolaurate, CAS RN 9005-64-5). The test plants were then grown in a glasshouse under controlled conditions (at 24/16° C., day/night; 14 hours light; 65% humidity) and watered twice daily. After 13 days, the test was evaluated (5=total damage to plant; 0=no damage to plant).

Lolium perenne (LOLPE) [2] = assay: Post-emergence herbicidal activity, Lolium perenne
Procedure: as §1

[3] = tested on: Triticum aestivium (TRZAW); assay: Post-emergence herbicidal activity, Triticum aestivium; parameters: key: 5=total damage to plant; 0=no damage to plant
Procedure: as §1

Lolium perenne (LOLPE) [4] = assay: Pre-emergence herbicidal activity, Lolium perenne; parameters: key: 5=total damage to plant; 0=no damage to plant
Procedure: (§2) Seeds of a variety of test species were sown in standard soil in pots: Triticum aestivium (TRZAW), Avena fatua (AVEFA), Alopecurus myosuroides (ALOMY), Echinochloa crus-galli (ECHCG), Lolium perenne (LOLPE), Zea Mays (ZEAMX), Abutilon theophrasti (ABUTH), Amaranthus retroflexus (AMARE) and Setaria faberi (SETFA). After cultivation for one day (pre-emergence) under controlled conditions in a glasshouse (at 24/16° C., day/night; 14 hours light; 65% humidity), the plants were sprayed with an aqueous spray solution derived from the formulation of the technical active ingredient in acetone/water (50:50) solution containing 0.5% Tween 20 (polyoxyethelyene sorbitan monolaurate, CAS RN 9005-64-5). The test plants were then grown in a glasshouse under controlled conditions (at 24/16°, day/night; 14 hours light; 65% humidity) and watered twice daily. After 13 days, the test was evaluated (5=total damage to plant; 0=no damage to plant).

Avena fatua (AVEFA) [5] = assay: Post-emergence herbicidal activity, Avena fatua; parameters: key: 5=total damage to plant; 0=no damage to plant
Procedure: as §1

[6] = tested on: Alopecurus myosuroides (ALOMY); assay: Post-emergence herbicidal activity, Alopecurus myosuroides; parameters: key: 5=total damage to plant; 0=no damage to plant
Procedure: as §1

[7] = tested on: Alopecurus myosuroides (ALOMY); assay: Pre-emergence herbicidal activity, Alopecurus myosuroides; parameters: key: 5=total damage to plant; 0=no damage to plant
Procedure: as §2

Setaria faberi (SETFA) [8] = assay: Post-emergence herbicidal activity, Setaria faberi; parameters: key: 5=total damage to plant; 0=no damage to plant
Procedure: as §1

Setaria faberi (SETFA) [9] = assay: Pre-emergence herbicidal activity, Setaria faberi; parameters: key: 5=total damage to plant; 0=no damage to plant
Procedure: as §2

[10] = tested on: Echinochloa crus-galli (ECHCG); assay: Pre-emergence herbicidal activity, Echinochloa crus-galli; parameters: key: 5=total damage to plant; 0=no damage to plant
Procedure: as §2

[11] = tested on: Triticum aestivium (TRZAW); assay: Pre-emergence herbicidal activity, Triticum aestivium; parameters: key: 5=total damage to plant; 0=no damage to plant
Procedure: as §2

Avena fatua (AVEFA) [12] = assay: Pre-emergence herbicidal activity, Avena fatua; parameters: key: 5=total damage to plant; 0=no damage to plant
Procedure: as §2

| SMILES | Control of ECHCG after post-emergence application (score 0-5) ([1]; 1000 g/ha) | Control of LOLPE after post-emergence application (score 0-5) (Lolium perenne (LOLPE) [2]; 1000 g/ha) | Control of TRAZW after post-emergence application (score 0-5) ([3]; 1000 g/ha) | Control of LOLPE after pre-emergence application (score 0-5) (Lolium perenne (LOLPE) [4]; 1000 g/ha) | Control of AVEFA after post-emergence application (score 0-5) (Avena fatua (AVEFA) [5]; 1000 g/ha) | Control of ALOMY after post-emergence application (score 0-5) ([6]; 1000 g/ha) | Control of ALOMY after pre-emergence application (score 0-5) ([7]; 1000 g/ha) | Control of SETFA after post-emergence application (score 0-5) (Setaria faberi (SETFA) [8]; 1000 g/ha) | Control of SETFA after pre-emergence application (score 0-5) (Setaria faberi (SETFA) [9]; 1000 g/ha) | Control of ECHCG after pre-emergence application (score 0-5) ([10]; 1000 g/ha) | Control of TRAZW after pre-emergence application (score 0-5) ([11]; 1000 g/ha) | Control of AVEFA after pre-emergence application (score 0-5) (Avena fatua (AVEFA) [12]; 1000 g/ha) | further results |
| --- | --- | --- | --- | --- | --- | --- | --- | --- | --- | --- | --- | --- | --- |
| O=C(Nc1ccc(-c2cncc(F)c2)nc1C(F)(F)F)OCC(F)(F)F [Compound B57] | 4 | 2 | 0 | 1 | 3 | 0 | 0 | 3 | 3 | 2 | 0 | 1 |  |
| O=C(Nc1ccc(-c2cncc(F)c2)nc1C(F)(F)F)OCCC(F)(F)F [Compound B96] |  |  |  |  |  |  |  |  |  |  |  |  | Control of ECHCG after post-emergence application (score 0-5) ([1]; 250 g/ha): 5; Control of LOLPE after post-emergence application (score 0-5) (Lolium perenne (LOLPE) [2]; 250 g/ha): 2; Control of TRAZW after post-emergence application (score 0-5) ([3]; 250 g/ha): 0; Control of LOLPE after pre-emergence application (score 0-5) (Lolium perenne (LOLPE) [4]; 250 g/ha): 1; Control of AVEFA after post-emergence application (score 0-5) (Avena fatua (AVEFA) [5]; 250 g/ha): 3; Control of ALOMY after post-emergence application (score 0-5) ([6]; 250 g/ha): 0; Control of ALOMY after pre-emergence application (score 0-5) ([7]; 250 g/ha): 0; Control of SETFA after post-emergence application (score 0-5) (Setaria faberi (SETFA) [8]; 250 g/ha): 5; Control of SETFA after pre-emergence application (score 0-5) (Setaria faberi (SETFA) [9]; 250 g/ha): 5; Control of ECHCG after pre-emergence application (score 0-5) ([10]; 250 g/ha): 4; Control of TRAZW after pre-emergence application (score 0-5) ([11]; 250 g/ha): 0; Control of AVEFA after pre-emergence application (score 0-5) (Avena fatua (AVEFA) [12]; 250 g/ha): 1 |
| O=C1OCCN1c1ccc(-c2cncc(F)c2)nc1C(F)(F)F [Compound B45, 3-[6-(5-fluoro-3-pyridyl)-2-(trifluoromethyl)-3-pyridyl]oxazolidin-2-one] | 4 | 2 | 1 | 0 | 3 | 1 | 0 | 4 | 3 | 3 | 0 | 0 |  |
| CC(C)COC(=O)Nc1ccc(-c2cncc(F)c2)nc1C(F)(F)F [Compound B43] | 4 | 3 | 2 | 1 | 4 | 1 | 1 | 5 | 4 | 3 | 1 | 1 |  |
| CC(C)(C)COC(=O)Nc1ccc(-c2cncc(F)c2)nc1C(F)(F)F [Compound B91] |  |  |  |  |  |  |  |  |  |  |  |  | Control of ECHCG after post-emergence application (score 0-5) ([1]; 250 g/ha): 2; Control of LOLPE after post-emergence application (score 0-5) (Lolium perenne (LOLPE) [2]; 250 g/ha): 1; Control of TRAZW after post-emergence application (score 0-5) ([3]; 250 g/ha): 0; Control of LOLPE after pre-emergence application (score 0-5) (Lolium perenne (LOLPE) [4]; 250 g/ha): 1; Control of AVEFA after post-emergence application (score 0-5) (Avena fatua (AVEFA) [5]; 250 g/ha): 2; Control of ALOMY after post-emergence application (score 0-5) ([6]; 250 g/ha): 0; Control of ALOMY after pre-emergence application (score 0-5) ([7]; 250 g/ha): 0; Control of SETFA after post-emergence application (score 0-5) (Setaria faberi (SETFA) [8]; 250 g/ha): 5; Control of SETFA after pre-emergence application (score 0-5) (Setaria faberi (SETFA) [9]; 250 g/ha): 5; Control of ECHCG after pre-emergence application (score 0-5) ([10]; 250 g/ha): 2; Control of TRAZW after pre-emergence application (score 0-5) ([11]; 250 g/ha): 1; Control of AVEFA after pre-emergence application (score 0-5) (Avena fatua (AVEFA) [12]; 250 g/ha): 1 |
| CNC(=O)N(C)c1ccc(-c2cncc(F)c2)nc1C(F)(F)F [Compound B73] | 4 | 2 | 1 | 1 | 3 | 1 | 0 | 4 | 4 | 2 | 0 | 0 |  |
| CC(C)(C)OC(=O)Nc1ccc(-c2cncc(C#N)c2)nc1C(F)(F)F [Compound B7] | 4 | 2 | 1 | 1 | 4 | 1 | 0 | 5 | 5 | 2 | 0 | 1 |  |
| COC(=O)c1nc(-c2cncc(F)c2)ccc1N(C(=O)OC(C)(C)C)C(=O)OC(C)(C)C [Compound B76, methyl 3-[bis(tert-butoxycarbonyl)amino]-6-(5-fluoro-3-pyridyl)pyridine-2-carboxylate] | 1 | 1 | 0 | 0 | 0 | 0 | 0 | 3 | 3 | 1 | 0 | 0 |  |
| COC(=O)CN(C(=O)OC(C)(C)C)c1ccc(-c2cncc(F)c2)nc1C(F)(F)F [Compound B11] | 2 | 1 | 0 | 0 | 1 | 0 | 0 | 3 | 1 | 0 | 0 | 0 |  |
| CC(C)c1cc(NC(=O)Nc2ccc(-c3cncc(F)c3)nc2C(F)(F)F)on1 [Compound B40] | 1 | 1 | 0 | 1 | 2 | 0 | 0 | 3 | 1 | 1 | 0 | 0 |  |
